# Laboratory results as given in PMC7153024, “New 8-Nitroquinolinone Derivative Displaying Submicromolar in Vitro Activities against Both Trypanosoma brucei and cruzi” (ACS Medicinal Chemistry Letters, 2020).
# “And” between values parts separate entries of the source, which are not always exact repeats. Equal values may be shown once. “Also recorded” adds a separate entry of the source. Read-outs that look alike come from different tables or passages of the source.
# Columns and labels:
# HepG2 cell line [1] = conditions: read-out: Cytotoxicity HepG2 CC50, cited from earlier work
# [2] = test system: L. infantum axenic amastigotes; assay: Antileishmanial activity on L. infantum axenic amastigotes; type: cell-based, Leishmania infantum; conditions: for Activity toward L. infantum (in words): axenic amastigotes
# Protocol: Experiments were performed at room temperature
# The supporting electrolyte
# The redox potentials measured (V/SCE) correspond […]
# in a ventilated flask to transform promastigotes into axenic amastigotes. The amastigote stage was checked both by electron microscopy (short flagellum with small bulbous tip extending beyond a spherical cell body) and RT-PCR for confirming the overexpression of ATG8 and amastin genes in amastigotes, compared to promastigotes. The effects of the tested compounds on the growth of L. infantum axenic amastigotes were assessed as follows. L. infantum amastigotes were incubated at a density of 2 × 10^6 parasites/mL in sterile 96-well plates with various concentrations of compounds dissolved in DMSO (final concentration less than 0.5% v/v), in duplicate. Appropriate controls DMSO, amphotericin B, miltefosine and fexinidazole (reference drugs purchased from Sigma Aldrich) were added to each set of experiments. After a 48 h incubation period at 37 °C, each plate-well was then microscopically-examined to detect any precipitate formation. To estimate the luciferase activity of axenic amastigotes, 80 µL of each well were transferred to white 96-well plates, Steady Glow® reagent (Promega) was added according to manufacturer's instructions, and plates were incubated for 2 min. The luminescence was measured in Microbeta Luminescence Counter (PerkinElmer). Efficient […]
# metabolic activity of L. infantum amastigotes compared to control. EC 50 values were calculated by non- […]
# values represent the mean of three independent experiments.
# Antileishmanial activity on L. donovani promastigotes NTR1 and NTR2 over-expressing strain.
# Cell lines and culture conditions: The clonal Leishmania donovani cell line LdBOB (derived from MHOM/SD/62/1S-CL2D) was grown as promastigotes at 26 °C in modified M199 media, as previously described.[2] LdBOB promastigotes overexpressing NTR1 (LinJ.05.0660) and NTR2 (LinJ.12.0730) were grown in the presence of nourseothricin (100 µg/mL). To examine the effects of test compounds on growth, triplicate promastigote cultures were seeded with 5 × 10^4 parasites/mL. Parasites were grown in 10 ml cultures in the presence of drug for 72 h, after which 200 μL aliquots of each culture were added to 96-well plates, 50 μM resazurin was added to each well and fluorescence (excitation of 528
# [3] = test system: T. brucei brucei trypomastigotes; assay: Antitrypanosomal activity on T. brucei brucei trypomastigotes (AnTat 1.9, Alamar Blue); type: cell-based, Trypanosoma brucei brucei; conditions: for Antitrypanosomal activity against T. b. brucei (in words): trypomastigotes; for Selectivity index regarding T. b. brucei: HepG2 CC50 versus T. b. brucei EC50; for EC50: Trypanosoma brucei, read-out: T. b. brucei trypomastigotes EC50
# [4] = Redox potentials by cyclic voltammetry in DMSO; conditions: 13 vs hit 2; 9, hit 1 and 2 vs pharmacophore; 10 vs 9; 5 vs 2
# in vitro = conditions: human, Cytotoxicity HepG2 CC50
# [5] = PAMPA assay using a blood-brain barrier (BBB) model; type: in vitro ADME; conditions: tested concentration 100 µM, pH 7.4
# [6] = Tolerance in the mouse after oral administration
# [7] = test system: Trypanosoma brucei brucei trypomastigotes wild type; assay: T. brucei trypomastigotes, wild type strain (S427); type: cell-based
# Protocol: Cells overexpressing NTR were
# Cell densities were determined after culture for 72 h, as previously described. EC50 values were determined using GraFit as described above.
# Cytotoxic evaluation on HepG2 cell line.
# Briefly, cells (1 × 10^5 cells/mL) in 100
# Each plate-well was then microscope-examined […]
# for 2 h at 37 °C and 5% CO2. […]
# added to dissolve the resulting formazan crystals. Plates were shaken vigorously (300 rpm) for 5 min.
# [8] = In vivo pharmacokinetics in the mouse after oral administration; conditions: oral 25 mg/kg
# Protocol: Finally, the in vivo pharmacokinetic parameters were determined in the mouse, after oral administration at 25 mg/kg in a mixture of 5% Tween 80 and 95% of 0.5% carboxymethylcellulose in water, by using the QuEChERS method.[32] Monolix Lixoft software was used to analyze the data by a noncompartmental model to fit pharmacokinetics parameters.[33] […]
# acetonitrile with 0.1% formic acid. […] The […]
# decrease to 2% (B); 2.6 < t < 4 min, 2% (B). Carbamazepine, oxazepam, warfarine and diclofenac are […]
# The unbound fraction (fu) is […]
# internal standard (propranolol 200 nM).
# = 350 μL and Vplasma = 200 μL).
# All animals were kept under the same
# 3, 6, 9, 12, and 24h after administration. Blood samples were stored frozen until required for assay.
# Sample preparation for spectrometry analysis
# Megazol was used like the internal standard (IS). LC-MS Optima grade Acetonitrile (ACN) and […]
# sesquihydrate) were supplied by VWR.
# HepG2 cell line [9] = conditions: human, 72 h
# HepG2 cell line [10] = assay: Alkaline comet assay on HepG2 cells; type: cell-based, human; conditions: HepG2, 1 and 10 μM, 2 or 72 h of incubation
# Excerpt: Even though many safe nitroaromatic molecules are today on the market (for example, antiprotozoal 5-nitroimidazoles such as metronidazole, several antihypertensive dihydropyridines like nicardipine, some benzodiazepines like loprazolam, anti-Parkinson’s catechol O-methyltransferase (COMT) inhibitors like entacapone, antiandrogens like flutamide, anti-inflammatory nimesulide, immunomodulating azathioprine, anticoagulant acenocoumarol, anthelminthic niclosamide, etc.) or in clinical trials (for instance, delamanid), drugs including a nitroaromatic moiety suffer from a bad reputation as possible mutagenic or genotoxic molecules, which narrows their pharmaceutical development.[29] The Ames test is the most commonly used assay to evaluate the mutagenic potential of compounds, using Salmonella typhimurium strains. […] Thus it is accepted that the comet assay or the micronucleus assay are more pertinent methods to evaluate the genotoxic potential of nitroaromatic compounds. For example, fexinidazole is positive in the Ames test but negative in the micronucleus assay.[31] A comet assay was then performed on the HepG2 cell line with hit compound 12, using methylmethanesulfonate (MMS) as a positive control (see the Supporting Information).
# Electrophoresis (with a solution which contained
# 28 V (resulting in 0.8 V/cm).
# After staining with SYBR®
# Prague Czech Republic). […] The median […]
# human albumin = assay: Human albumin binding assay; type: in vitro ADME
# Protocol: are kept at 4 °C for immediate analysis or placed at -80 °C in case of postponement of the analysis.
# Controls (t0 and tfinal) in triplicate are prepared by incubation of the internal standard with microsomes denatured by acetonitrile. The LC-MS used for this study is a Waters® Acquity I-Class / Xevo TQD, equipped with a Waters® Acquity BEH C18 column, 50 x 2.1 mm, 1.7 μm. The mobile phases are (A) […]
# The injection volume is 1 µL and […]
# the flow rate is 600 µL/min.
# 98% (B); […]; 2.6 < t < 4 min, 2% (B). Compound 8-bromo-6- […]
# chloro-3-nitro-2-(phenylsulfonylmethyl)imidazo[1,2-a]pyridine is used as internal standard. The quantification of each compound is obtained by converting the average of the ratios of the analyte/internal standard surfaces to the percentage of consumed product. The ratio of the control at t0 corresponds to 0% of product consumed. The calculation of the half-life (t1/2) of each compound in the […]
# presence of microsomes is done according to the equation: . Where k is the first-order t1=k […]
# degradation constant (the slope of the logarithm of compound concentration versus incubation time).
# The intrinsic clearance in vitro (Cl int expressed in μL/min/mg) is calculated according to the equation:
# Clint= [microsomes]. […]
# [11] = parameters: method as in PMID 21200426; conditions: cited from earlier work
# [12] = test system: Salmonella typhimurium strains; conditions: cited from earlier work
# [13] = test system: T. brucei brucei trypomastigotes; conditions: previously reported pharmacophore and hit compounds; cited from earlier work
# [14] = test system: L. infantum axenic amastigotes; conditions: previously reported pharmacophore and hit compounds; read-out: L. infantum axenic amastigote EC50; cited from earlier work
# [15] = female, Swiss, whole blood of mouse, n = 4
smiles,measurement,setting,value
"O=c1[nH]c2c([N+](=O)[O-])cccc2cc1Cl [A, 3-chloro-8-nitroquinolin-2(1H)-one]",CC50,HepG2 cell line [1]; 3-chloro analogue A,85 ± 4 µM
O=c1ccc2cc(C(F)(F)F)ccc2[nH]1 [Compound 1],Activity toward L. infantum (in words),[2],inactive
same,Antitrypanosomal activity against T. b. brucei (in words),[3],inactive
O=c1ccc2cc(C(F)(F)F)cc([N+](=O)[O-])c2[nH]1 [Compound 2],Shift of the E° value versus the comparator compound,[4],+0.15 V
same,CC50 at 72 h,in vitro,28 to 41 µM
O=c1[nH]c2ccc(C(F)(F)F)cc2cc1Cl [Compound 3],Activity toward L. infantum (in words),[2],inactive
same,Antitrypanosomal activity against T. b. brucei (in words),[3],inactive
O=c1[nH]c2ccc(C(F)(F)F)cc2cc1Br [Compound 4],Activity toward L. infantum (in words),[2],inactive
same,Antitrypanosomal activity against T. b. brucei (in words),[3],inactive
COc1ccc2cc(C(F)(F)F)cc([N+](=O)[O-])c2n1 [Compound 5],Activity toward L. infantum (in words),[2],inactive
same,Shift of the E° value versus the comparator compound,[4],−0.36 V
O=c1[nH]c2c([N+](=O)[O-])cc(C(F)(F)F)cc2cc1Br [Compound 7],Selectivity index (antileishmanial),"[2]; regarding L. infantum, HepG2",> 10
same,Selectivity index regarding T. b. brucei,[3],> 200
same,BBB PAMPA assay Pe,[5],45.03 ×10⁻⁶ cm/s and 45.03 ± 17.05 ×10⁻⁶ cm/s
Nc1cc(C(F)(F)F)cc2cc(Br)c(=O)[nH]c12 [Compound 8],Activity toward L. infantum (in words),[2],inactive
O=c1ccc2cc(Br)cc([N+](=O)[O-])c2[nH]1 [Compound 9],Selectivity index regarding T. b. brucei,[3],> 200
same,Times more active than 3-bromo-position isomer (hit 1),[3]; T. b. brucei trypomastigotes,27
same,Times more active than the 8-nitroquinolin-2(1H)-one pharmacophore,[3]; T. b. brucei trypomastigotes,334
same,Shift of the E° value versus the comparator compound,[4],+0.14 V
same,CC50 at 72 h,in vitro,28 to 41 µM
O=c1[nH]c2c([N+](=O)[O-])cc(Br)cc2cc1Br [Compound 10],Selectivity index regarding T. b. brucei,[3],> 200
same,EC50,[3],0.012 to 0.05 µM
same,Shift of the E° value versus the comparator compound,[4],+0.03 V
same,CC50 at 72 h,in vitro,17 µM
O=c1[nH]c2c([N+](=O)[O-])cc(Cl)cc2cc1Cl [Compound 11],Selectivity index regarding T. b. brucei,[3],> 200
O=c1[nH]c2c([N+](=O)[O-])cc(Br)cc2cc1Cl [Compound 12],"Tolerance, repeated dose",[6]; 25 mg/kg once daily for 5 days,well tolerated without any adverse effect noted
same,Organ lesions after euthanasia,"[6]; kidney, liver, brain, heart, lung",no lesions were found
same,"Tolerance, oral dose",[6]; once daily oral dose at 25 or 50 mg/kg,well tolerated
same,Activity compared with nifurtimox against T. b. brucei,[7],six times more active than nifurtimox
same,half-life at 24 h,"[8]; female, Swiss, plasma, mouse, read-out: Plasmatic half life (converted)",2.9 h
same,AUC(0-inf),[8]; [15],123 µg·h/mL
same,Cmax,[8]; [15],17400 ng/mL
same,Tmax,[8]; [15],1.5 h
same,half-life,[8]; [15],2.87 h
same,Clairance,"[8]; whole blood of mouse, n = 4","0,00768 mL/h"
same,Times more active than 3-chloro-analogue A,[3]; T. b. brucei trypomastigotes,100
same,EC50,[3],0.012 to 0.05 µM
same,BBB PAMPA assay Pe,[5],40.51 ×10⁻⁶ cm/s and 40.51 ± 6.93 ×10⁻⁶ cm/s
same,Times more cytotoxic than reference drugs,HepG2 cell line [9],about 10
same,Comet assay (genotoxicity),HepG2 cell line [10],not genotoxic; also recorded: lack of genotoxicity; also recorded: Negative
O=C(O)c1ccc(-c2cc3cc(Br)cc([N+](=O)[O-])c3[nH]c2=O)cc1 [Compound 13],Albumin binding assay,human albumin,> 99%
same,Selectivity index regarding T. b. brucei,[3],> 200
same,BBB PAMPA assay Pe,[5],1.27 ×10⁻⁶ cm/s and 1.27 ± 0.09 ×10⁻⁶ cm/s
same,Shift of the E° value versus the comparator compound,[4],+0.16 V
"COc1cccc2c1C(=O)c1c(O)c3c(c(O)c1C2=O)C[C@@](O)(C(=O)CO)C[C@@H]3O[C@H]1C[C@H](N)[C@H](O)[C@H](C)O1 [Doxorubicin, reference compound]",CC50,HepG2 cell line [9],0.2 ± 0.02 µM
CSc1ccc(OCc2ncc([N+](=O)[O-])n2C)cc1 [Fexinidazole],Micronucleus assay,[11],negative
same,Ames test,[12],positive
O=c1[nH]c2c([N+](=O)[O-])cccc2cc1Br [Hit 1],EC50,[13],1.9 ± 0.4 µM
same,EC50,[14],7.1 ± 1.5 µM
same,Shift of the E° value versus the comparator compound,[4],+0.09 V
same,CC50,HepG2 cell line [1]; previously reported pharmacophore and hit compounds,92 ± 13 µM
O=C(O)c1ccc(-c2cc3cccc([N+](=O)[O-])c3[nH]c2=O)cc1 [Hit 2],EC50,[14],> 100 µM
